Where two headings read alike, the source gives them in different places.
What was measured:
[1] = target: T1, SF9 affinity purified rat farnesyl protein transferase (Rattus norvegicus, UniProt Q02293+Q04631); assay: PFT inhibitory activity (radiolabeled farnesyl pyrophosphate, streptavidin bead assay); assay type: biochemical
T1 construct: made in house; host or cells: Sf9 insect cells (baculovirus system inferred from b7)
Summary of the method: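 HEPES pH 7.4 with 5 mM potassium phosphate (also run without), 20 μM ZnCl2, 5 mM DTT, 5 mM MgCl2, 0.1% PEG 8000; [3H]farnesyl pyrophosphate 134 nM and biotinyl-Ahe-TKCVIM peptide 0.2 μM final. Incubated 30 min at 30° C, stopped with acidic magnesium acetate/streptavidin bead buffer; bead-bound radioactivity counted.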

[2] = system: ras farnesylation in ras-transformed cells; assay: Gel shift assay; assay type: cell-based; settings: ras-transformed cells, 18-hour incubation; for minimal effective concentration: read-out: Gel Shift (μM) MED (minimal effective dose to observe inhibition of ras farnesylation)
Summary of the method: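 Ras-transformed cells (2×10^6 per condition) treated with farnesylation inhibitor at varying concentrations for 18 h. Ras immunoprecipitated from lysates with Y13-259, resolved on 14% SDS gels and detected by pan-ras Western blot with ECL, farnesylated and unfarnesylated ras separating by mobility shift.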

[3] = system: H61 cells: NIH transformed 3T3 H-ras cells; assay: Clonogenic assay (6 well plates, soft agar); assay type: cell-based; settings: colonies counted after Day 13, read-out: Clonogenic Assay IC50
Summary of the method: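 Soft-agar colony formation: cells seeded in 0.3% agar top layer with 20% calf serum over a 0.6% agar base, drug or DMSO added at 4 µL per mL agar/medium. Incubated at 37 °C, 5% CO2; INT (1 mg/mL) added on day 13 to stain colonies.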

[4] = HEPES buffer pH 7.4, without 5 mM potassium phosphate, read-out: IC50 (μM) Hepes
[5] = HEPES buffer pH 7.4 containing 5 mM potassium phosphate, read-out: IC50 (μM) 5 mM K3 PO4 -2

T1 sequence (Q02293 whole entry, one chain of several): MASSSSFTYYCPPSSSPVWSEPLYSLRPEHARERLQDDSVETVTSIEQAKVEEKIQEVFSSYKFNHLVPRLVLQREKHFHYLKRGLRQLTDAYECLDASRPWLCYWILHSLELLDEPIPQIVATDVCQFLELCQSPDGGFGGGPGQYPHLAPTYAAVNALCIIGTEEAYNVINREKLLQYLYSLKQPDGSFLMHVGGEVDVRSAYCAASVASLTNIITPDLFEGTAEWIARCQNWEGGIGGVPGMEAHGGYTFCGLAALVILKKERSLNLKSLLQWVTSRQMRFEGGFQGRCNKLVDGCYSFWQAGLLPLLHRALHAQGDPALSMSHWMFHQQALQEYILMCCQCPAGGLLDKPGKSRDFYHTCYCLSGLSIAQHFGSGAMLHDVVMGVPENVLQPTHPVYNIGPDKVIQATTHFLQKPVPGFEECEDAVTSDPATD

SMILES | IC50 [1, 4] [µM] | IC50 [1, 5] [µM] | IC50 ([1]; with 5 mM potassium phosphate, average obtained by additional tests, read-out: IC50 (μM) 5 mM K3 PO4 -2, number in parentheses) [µM] | IC50 ([1]; without 5 mM potassium phosphate, average obtained by additional tests, read-out: IC50 (μM) Hepes, number in parentheses) [µM] | minimal effective concentration [2] [µM] | IC50 ([3]; 312 h) [nM] | IC50 [3] [nM] | Gel Shift (μM) MED (minimal effective dose to observe inhibition of ras farnesylation) [2] [µM]
C[C@@H](Cc1ccccc1)NC(=O)CN(Cc1ccc(OCc2ccccc2)cc1)C(=O)[C@H](Cc1c[nH]cn1)NC(=O)OCc1ccccc1 [Example 11] | 2.5 | 0.082 | – | – | 0.2 | – | > 1000 | –
N#CC(CNC(=O)CN(Cc1ccc(OCc2ccccc2)cc1)C(=O)[C@H](Cc1c[nH]cn1)NC(=O)OCc1ccccc1)c1ccccc1 (some centres unmarked) [Example 45] | 0.35 | 0.0024 | – | – | 0.05 | – | 140 | –
CC(CNC(=O)CN(Cc1ccc(OCc2ccccc2)cc1)C(=O)[C@H](Cc1c[nH]cn1)NC(=O)OCc1ccccc1)c1ccccc1Cl (stereo partly drawn) [Example 32, (S)-[1-((4-Benzyloxy-benzyl)-{[2-(2-chloro-phenyl)-propylcarbamoyl]-methyl}-carbamoyl)-2-(1H-imidazole-4-yl)-ethyl]-carbamic Acid Benzyl Ester] | 0.32 | 0.007 | – | – | 0.05 | 360 | – | –
O=C(CN(Cc1ccc(OCc2ccccc2)cc1)C(=O)[C@H](Cc1cnc[nH]1)NC(=O)OCc1ccccc1)NCC(O)c1ccccc1 (stereo partly drawn) [Example 14, (S)-[1-{(4-Benzyloxy-benzyl)-[(2-hydroxy-2-phenyl-ethylcarbamoyl)-methyl]-carbamoyl}-2-(3H-imidazole-4-yl)-ethyl]-carbamic Acid Benzyl Ester] | 1.6 | 0.066 | – | – | 0.05 | > 1000 | – | –
CCC(CC)(CNC(=O)CN(Cc1ccc(OCc2ccccc2)cc1)C(=O)[C@H](Cc1cnc[nH]1)NC(=O)OCc1ccccc1)c1ccccc1 [Example 25, (S)-[1-{(4-Benzyloxy-benzyl)-[(2-ethyl-2-phenyl-butylcarbamoyl)-methyl]-carbamoyl}-2-(3H-imidazole-4-yl)-ethyl]-carbamic Acid Benzyl Ester] | 0.93 | 0.032 | – | – | 0.2 | 890 | – | –
C[C@H](Cc1ccccc1)NC(=O)CN(Cc1ccc(OCc2ccccc2)cc1)C(=O)[C@H](Cc1c[nH]cn1)NC(=O)OCc1ccccc1 [Example 10] | 0.58 | 0.018 | – | – | – | – | 710 | 0.01 to 0.05
CC(CNC(=O)CN(Cc1ccc(OCc2ccncc2)cc1)C(=O)[C@H](Cc1c[nH]cn1)NC(=O)OCc1ccccc1)c1ccccc1 (stereo partly drawn) [Example 34, (S)-(2-(1H-Imidazole-4-yl)-1-{[(2-phenyl-propyl-carbamoyl)-methyl]-[4-(pyridin-4-ylmethoxy)-benzyl]-carbamoyl}-ethyl)-carbamic Acid Benzyl Aster] | 0.097 | 0.002 | – | – | 0.05 | – | 140 | –
CC(CNC(=O)CN(Cc1ccc(OCc2ccccc2)cc1)C(=O)[C@H](Cc1c[nH]cn1)NC(=O)NCc1ccccc1)c1ccccc1 (stereo partly drawn) [Example 6, (S)-N-(4-Benzyloxy-benzyl)-2-(3-benzyl-ureido)-3-(1H-imidazole-4-yl)-N-[(2-phenyl-propylcarbamoyl)-methyl]-propionamide] | 0.2 | 0.0022 | 0.017 | 0.5 | 0.2 | > 1000 | – | –
O=C(CN(Cc1ccc(OCc2ccccc2)cc1)C(=O)[C@H](Cc1c[nH]cn1)NC(=O)OCc1ccccc1)NCCc1ccccc1Cl [Example 53] | 10.6 | 0.12 | – | – | 0.2 | – | 12400 | –
CCC(CNC(=O)CN(Cc1ccc(OCc2ccccc2)cc1)C(=O)[C@H](Cc1c[nH]cn1)NC(=O)NCc1ccccc1)c1ccccc1 (stereo partly drawn) [Example 27, (S)-N-(4-Benzyloxy-benzyl)-2-(3-benzyl-ureido)-3-(1H-imidazole-4-yl)-N-[(2-phenyl-butylcarbamoyl)-methyl]-propionamide] | 0.12 | 0.014 | – | – | 0.2 | > 1000 | – | –

Continued, in another order:

IC50 [1, 4] [µM] | IC50 [1, 5] [µM] | IC50 ([1]; with 5 mM potassium phosphate, average obtained by additional tests, read-out: IC50 (μM) 5 mM K3 PO4 -2, number in parentheses) [µM] | IC50 ([1]; without 5 mM potassium phosphate, average obtained by additional tests, read-out: IC50 (μM) Hepes, number in parentheses) [µM] | SMILES | minimal effective concentration [2] [µM] | IC50 ([3]; 312 h) [nM] | IC50 [3] [nM] | Gel Shift (μM) MED (minimal effective dose to observe inhibition of ras farnesylation) [2] [µM]
0.5 | 0.009 | – | – | COc1ccccc1CN(CC(=O)NCC(C)c1ccccc1)C(=O)[C@H](Cc1c[nH]cn1)NC(=O)OCc1ccccc1 (stereo partly drawn) [Example 33, (S)-(2-(1H-Imidazole-4-yl)-1-{(2-methoxy-benzyl)-[(2-phenyl-propylcarbamoyl)-methyl]-carbamoyl}-ethyl)-carbamic Acid Benzyl Ester] | 0.05 | 360 | – | –
1.2 | 0.016 | – | – | CC(C)(CNC(=O)CN(Cc1ccc(F)cc1)C(=O)[C@H](Cc1c[nH]cn1)NC(=O)OCc1ccccc1)c1ccccc1 [Example 22, (S)-[1-{(4-Fluoro-benzyl)-[(2-methyl-2-phenyl-propylcarbamoyl)-methyl]-carbamoyl}-2-(1H-imidazole-4-yl)-ethyl]-carbamic Acid Benzyl Ester] | 0.2 | > 1000 | – | –
7.8 | 0.3 | – | – | O=C(CN(Cc1ccc(OCc2ccccc2)cc1)C(=O)[C@H](Cc1c[nH]cn1)NC(=O)OCc1ccccc1)NCCc1ccccn1 [Example 8, (S)-[1-{(4-Benzyloxy-benzyl)-[(2-pyridin-2-yl-ethylcarbamoyl)-methyl]-carbamoyl]-2-(1H-imidazole-4-yl)-ethyl]-carbamic Acid Benzyl Ester] | 0.2 | > 1000 | – | –
1.26 | 0.015 | – | – | Cc1ccc(CN(CC(=O)NCC(C)c2ccccc2)C(=O)[C@H](Cc2c[nH]cn2)NC(=O)OCc2ccccc2)cc1 (stereo partly drawn) [Example 19, (S)-(2-(1H-Imidazole-4-yl)-1-{(4-methyl-benzyl)-[(2-phenyl-propylcarbamoyl)-methyl]-carbamoyl}-ethyl)-carbamic Acid Benzyl Ester] | 0.05 | 660 | – | –
1.6 | 0.022 | – | – | CC(CNC(=O)CN(Cc1ccccc1)C(=O)[C@H](Cc1c[nH]cn1)NC(=O)OCc1ccccc1)c1ccccc1 (stereo partly drawn) [Example 23, (S)-[1-{Benzyl-[(2-phenyl-propylcarbamoyl)-methyl]-carbamoyl}-2-(1H-imidazole-4-yl)-ethyl]-carbamic Acid Benzyl Ester] | 0.2 | > 1000 | – | –
0.78 | 0.016 | – | – | CC(CNC(=O)CN(Cc1cccc(Cl)c1)C(=O)[C@H](Cc1c[nH]cn1)NC(=O)OCc1ccccc1)c1ccccc1 (stereo partly drawn) [Example 30, (S)-[1-{(3-Chloro-benzyl)-[(2-phenyl-propylcarbamoyl)-methyl]-carbamoyl}-2-(1H-imidazole-4-yl)-ethyl]-carbamic Acid Benzyl Ester] | 0.1 | > 1000 | – | –
2.1 | 0.009 | – | – | COc1cccc(CN(CC(=O)NCC(C)c2ccccc2)C(=O)[C@H](Cc2c[nH]cn2)NC(=O)OCc2ccccc2)c1 (stereo partly drawn) [Example 35, (S)-(2-(1H-Imidazole-4-yl)-1-{(3-methoxy-benzyl)-[(2-phenyl-propylcarbamoyl)-methyl]-carbamoyl}-ethyl)-carbamic Acid Benzyl Ester] | 0.2 | > 1000 | – | –
0.52 | 0.014 | – | – | CC(C)(CNC(=O)CN(Cc1ccc(Cl)cc1)C(=O)[C@H](Cc1c[nH]cn1)NC(=O)OCc1ccccc1)c1ccccc1 [Example 31, (S)-[1-{(4-Chloro-benzyl)-[(2-methyl-2-phenyl-propylcarbamoyl)-methyl]-carbamoyl}-2-(1H-imidazole-4-yl)-ethyl]-carbamic Acid Benzyl Ester] | 0.1 | > 1000 | – | –
0.48 | 0.004 | – | – | CC(C)(CNC(=O)CN(Cc1ccc(-c2ccccc2)cc1)C(=O)[C@H](Cc1c[nH]cn1)NC(=O)OCc1ccccc1)c1ccccc1 [Example 52, (S)-[1-{Biphenyl-4-ylmethyl-[(2-methyl-2-phenyl-propylcarbamoyl)-methyl]-carbamoyl}-2-(1H-imidazole-4-yl)-ethyl]-carbamic Acid Benzyl Ester] | 0.05 | 520 | – | –
0.06 | 0.009 | – | – | CC(C)(CNC(=O)CN(Cc1ccc(OCc2ccncc2)cc1)C(=O)[C@H](Cc1c[nH]cn1)NC(=O)OCc1ccccc1)c1ccccc1 [Example 49, (S)-(2-(1H-Imidazole-4-yl)-1-{[(2-methyl-2-phenyl-propylcarbamoyl)-methyl]-[4-(pyridin-4-ylmethoxy)-benzyl]-carbamoyl}-ethyl)-carbamic Acid Benzyl Ester] | 0.05 | 100 | – | –
9.5 | 0.1 | – | – | CC(C)(CNC(=O)CN(Cc1cccnc1)C(=O)[C@H](Cc1c[nH]cn1)NC(=O)OCc1ccccc1)c1ccccc1 [Example 39, (S)-(2-(1H-Imidazole-4-yl)-1-{[(2-methyl-2-phenyl-propylcarbamoyl)-methyl]-pyridin-3-ylmethyl-carbamoyl}-ethyl)-carbamic Acid Benzyl Ester] | > 0.2 | > 1000 | – | –
